These results are taken from patent US8288439B2, “Methods and compositions for the inhibition of HIV-1 replication” (The United States of America, as represented by the …, priority 2003, dated 2012).

“Also recorded” adds a separate entry of the source. Like-named read-outs stand apart in the source and are kept apart here.

Series [1] deals with p21 (CDKN1A). The series can be described thus: p21 (CDKN1A) gene expression in HIV-1 infected macrophages (ribonuclease protection assay). In kind it is cell-based, human. Conditions: for human p21 expression: murine-derived antisense sequences tested in human macrophages. From the text: Total cellular RNA is extracted from adherent control or infected monocytes with the RNeasy minikit (Qiagen, Valencia, Calif.) and analyzed by northern blot (Wahl, S. M. et al. (1998) “MYCOBACTERIUM AVIUM COMPLEX AUGMENTS MACROPHAGE HIV-1 PRODUCTION AND INCREASES CCR5 EXPRESSION. Proc Natl Acad Sci USA 95:12574-12579) using an HIV-full length probe (NIH AIDS Research and Reference Reagent Program) and GAPDH (glyceraldehyde-3-phosphate dehydrogenase) (Gibco BRL, Gaithersburg, Md.). For the RPA 3 μg of RNA is evaluated using the hStress tRiboquant Multi-Probe RPA system (BD Pharmingen, San Diego, Calif.) and densities are normalized to the GAPDH gene using ImageQuant (Molecular Dynamics, Sunnyvale, Calif.)

Series [2] deals with CD4 and CCR5. Nature of the series: Macrophage CD4 and CCR5 expression. Format: cell-based, human. As for the experimental part: Macrophages were also treated with p21 siRNA duplexes (5 nM) five days prior to HIV infection and the effect on HIV-growth was determined (% of positive HIV control, no siRNA treatment) (representative experiment, n=3) (FIG. 6B). The percent of HIV-1 infection was determined comparing the p24 levels in untreated vs oligo or siRNA treated macrophages. Cells treated with p21 and negative control siRNA (5 days) were also analyzed by flow cytometry for CD4 and CCR5 cell surface expression (FIG. 6C). Nested PCR was employed in order to detect pro-viral DNA on days 1 and 3 after HIV-1BaL infection in macrophages treated with p21 or control siRNA or negative control si RNA. Control represents uninfected cells (FIG. 6D).

The test system of series [3] is HIV-1. Conditions: for viral replication / HIV-1 growth as determined by p24 levels: oligonucleotide 50 nM, after HIV-1 infection and at refeeding, day 12, vs HIV control without oligo.
Experimental: Monocytes are plated in 6 well plates (Corning Costar Corporation, Cambridge, Mass.), at 6×10^6 cells/well or in Lab-Tek chamber slides (Naperville, Ill.) at 1.5×10^6/chamber in Dulbecco's modified Eagle's medium (DMEM) with 2 mM L-glutamine and 10 μg/ml gentamicin (BioWhittaker) or in other suitable vessels. After adherence (4-6 hr at 37° C. and 5% CO2), 10% human AB-serum (Sigma, St. Louis, Mo.) is added to the culture medium. Cells are cultured 5-10 days to allow differentiation into macrophages before being infected with HIV-1BaL TCID50=1000-5000 (Advanced Biotechnologies Inc., Columbia, Md.) or other M tropic (R5) virus for 90 minutes at 37° C. The levels of endotoxin are below the limit of detection in virus preparations. Unbound virus is removed by washing the cells with media and refeeding with complete DMEM containing 10% human serum. Control populations of adherent macrophages are mock-infected and cultured in parallel. Every 3 to 4 days, half the medium is removed for virus assay and replaced with fresh complete medium for two weeks. Supernatant p24 antigen is assayed using the p24 core profile enzyme-linked immunosorbent assay (ELISA) kit (Perkin-Elmer Life Sciences, Wilmington, Del.). […] Additionally, macrophages are treated with p21 anti-sense phosphorothioate oligonucleotides:
Series [4] concerns macrophages. Nature of the series: Macrophage cell viability / cell number, morphology and ultrastructural analysis. The note with it: for cell viability (cell number, morphology, ultrastructural analysis): infected or uninfected macrophage cultures treated with oligonucleotides.
Experimental: To determine whether the increased p21 influenced viral life cycle, the cells are treated with two distinct p21 anti-sense oligonucleotides (SEQ ID NO. 7 and SEQ ID NO. 9).
Series [5] deals with HIV-1. The series can be described thus: Transmission electron microscopy (ultrastructural analysis) of HIV-1 infected macrophages. In kind it is cell-based. Conditions: day 12; ≧200 cells/treatment condition. From the text:
Gluteraldehyde-fixed uninfected and infected cells are postfixed in OsO4, dehydrated through graded ethanol and propylene oxide, embedded in Spurr's epoxy, and thick- and thin-sectioned. Thin sections are placed on copper grids, stained with uranyl acetate and lead citrate, and viewed in a Zeiss EM10 microscope (LEO Electron Microscope; Oberkochen, Germany).

Series [6] concerns p21 (CDKN1A). The series can be described thus: p21 protein levels in macrophages. The note with it: concomitant with reducing HIV infection. Format: cell-based, human. As for the experimental part:
Uninfected and HIV-1 infected macrophages that have been cultured for twelve days are washed twice with PBS, fixed with 2% paraformaldehyde in PBS, washed and incubated in 100 mM glycine in PBS for 20 min, followed by 0.5% Triton-X-100 for 10 min and rinsed with PBS. Cells are then labeled with rabbit anti-p21 antibody at 5 μg/ml (Santa Cruz Biotechnology, Santa Cruz, Calif.) in PBS containing 5% donkey serum (Jackson ImmunoResearch Laboratories, Inc., West Grove, Pa.) for 1 hr, washed extensively, then incubated with Texas-Red conjugated secondary antibody at 3 μg/ml at room temperature (Molecular Probes, Eugene, Oreg.). Non-specific background is determined using an irrelevant rabbit isotype control antibody and secondary antibody alone at the same concentrations above. Images are captured using a Leica TCS-4D confocal microscope system with a Kr—Ar laser on a DMR upright microscope using a 40×, 1.0 numerical aperture objective. Fluorescence intensity analysis is performed using confocal microscopy and Metamorph analysis (Universal Imaging, Downington, Pa.). […]

The subject of series [7] is p21. The series can be described thus: Induction of p21 gene and protein expression in macrophages treated with Vpr. Format: cell-based, human. The note with it: Vpr 6 μg/ml for 3 hr. As for the experimental part: Macrophages were treated with Vpr (6 μg/ml) for 3 hr and found to show increased gene transcription and protein expression for p21 when treated with Vpr (FIG. 7A and FIG. 7B).

As to “5′-ACATCACCAGGATTGGACAT-3′ (all phosphorothioate, sugars by position and methylation of C not given here; listed as Mus musculus) [SEQ ID NO. 9]”, the “human p21 expression” value in series [1] is listed as “effective in inhibiting”. Besides, in series [2], the “effect on macrophage CD4 and CCR5” value is listed as “no direct effect”. Further, the “viral replication / HIV-1 growth as determined by p24 levels” value (shortened to “viral replication / HIV-1 growth”) in series [3] is recorded as “reduce viral replication; also recorded: inhibit HIV-1 growth”. The “cell viability (cell number, morphology, ultrastructural analysis)” value in series [4] is given as “no negative effect”.
As for `CC1(C)CC[C@]2(C(=O)O)CC[C@]3(C)[C@H](C(=O)C=C4[C@@]5(C)C=C(C#N)C(=O)C(C)(C)[C@@H]5CC[C@]43C)[C@@H]2C1` [CDDO], in series [5], the “detectable virions (TEM)” value is reported as “absence or near absence of detectable virions” and the “numbers of infected cells (ultrastructural analysis, TEM)” value is on record as “dramatically reduced numbers of infected cells”. Further, in series [1] (HIV-1 infected macrophages, day 12 post-infection, mean, n=2), the “p21 transcription by ribonuclease protection assay” value was “reduced p21 transcription”. The p21 protein levels result in series [6] is “variably decrease”. Moreover, the “release of the viral protein p24 Ag” value in series [3] (added prior to, or at the time of, infection of macrophages with HIV-1, CDDO 0.1 μM) is reported as “dose dependent suppression”. The “levels of detectable virus” value in series [3] (macrophages infected with HIV-1) is on record as “dramatically reduced”. In addition, the “viral replication as quantitated by p24 levels” value in series [3] (macrophages pre-treated 45 min, then infected with HIV-1BaL, compared with DMSO control and untreated cells, day 10, n=3, P=0.01) was “reduced viral replication”. Besides, in series [4] (HIV-1 infected macrophages treated with CDDO or di-CDDO), the “cell viability or cell number” value is recorded as “Without reducing cell viability or cell number”.
Regarding “5′-TGGATCCGACATGTCAGA-3′ [SEQ ID NO. 14]”, the “viral replication / HIV-1 growth” value in series [3] was “not”; in series [3] (listed as SEQ ID NO. 13) it was “did not suppress”.
With “5′-TGTCAGGCTGGTCTGCCTCC-3′ (all phosphorothioate, sugars by position and methylation of C not given here; listed as Mus musculus) [SEQ ID NO. 7]”, the “human p21 expression” value in series [1] was “effective in inhibiting”. The “effect on macrophage CD4 and CCR5” value in series [2] is reported as “no direct effect”. Moreover, the “viral replication / HIV-1 growth” value in series [3] was “reduce viral replication; also recorded: inhibit HIV-1 growth”. For the same compound, in series [4], the “cell viability (cell number, morphology, ultrastructural analysis)” value was “no negative effect”.
Regarding “Vpr: HIV-1 Vpr gene product, added to macrophages at 6 μg/ml”, in series [7], the p21 gene transcription entry is “increased” and the p21 protein expression result is on record as “increased”.
